According to patent US12655116B2, “Substituted isophthalic acid diamides” (Bayer Aktiengesellschaft, priority 2020, dated 2026):

Legend:
DIGSA [1] = assay: Pre-emergence herbicidal action against DIGSA; assay type: in vivo, Digitaria sanguinalis; conditions: Digitaria sanguinalis, 504 h
In short: (§1)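 Herbicidal effect was assessed 3 weeks after treatment by visual comparison with untreated controls, 100% denoting dead plants. Aqueous WP or EC preparations had been applied at 600 to 800 l/ha with 0.2% wetting agent to the soil covering freshly sown seeds.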

VERPE = assay: Post-emergence herbicidal action against VERPE; assay type: in vivo, Veronica persica; conditions: Veronica persica, 504 h, 20 g/ha
In short: (§2)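 Post-emergence greenhouse test; one-leaf stage, 2–3 wk post-sowing, sandy loam. Foliar spray of WP/EC in water, 600–800 l/ha, +0.2% wetting agent. Visual % action at ~3 wk vs untreated (100% = plants dead).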

AMARE [2] = assay: Post-emergence herbicidal action against AMARE; assay type: in vivo, Amaranthus retroflexus; conditions: Amaranthus retroflexus, 504 h, 20 g/ha, visual assessment about 3 weeks after treatment, 100% = plants have died, 0% = like control plants
In short: as §2

VIOTR [3] = assay: Pre-emergence herbicidal action against VIOTR; assay type: in vivo, Viola tricolor; conditions: Viola tricolor, 504 h; for pest or weed control at 20 g/ha: dosage 20 g/ha; for pest or weed control at 80 g/ha: dosage 80 g/ha
In short: as §1

ABUTH [4] = assay: Post-emergence herbicidal action against ABUTH; assay type: in vivo, Abutilon theophrasti; conditions: Abutilon theophrasti, 504 h, dosage 20 g/ha, visual assessment about 3 weeks after treatment vs untreated controls
In short: as §2

VIOTR [5] = assay: Post-emergence herbicidal action against VIOTR; assay type: in vivo, Viola tricolor; conditions: Viola tricolor, 504 h
In short: as §2

PHBPU = assay: Post-emergence herbicidal action against PHBPU; assay type: in vivo, Pharbitis purpurea; conditions: Ipomoea purpurea, 504 h; for pest or weed control at 20 g/ha: dosage 20 g/ha
In short: as §2

AVEFA = assay: Pre-emergence herbicidal action against AVEFA; assay type: in vivo, Avena fatua; conditions: Avena fatua, 504 h, pre-emergence
In short: as §1

ECHCG [6] = assay: Post-emergence herbicidal action against ECHCG; assay type: in vivo, Echinochloa crus-galli; conditions: Echinochloa crus-galli, 504 h, dosage 20 g/ha
In short: as §2

DIGSA [7] = assay: Post-emergence herbicidal action against DIGSA; assay type: in vivo, Digitaria sanguinalis; conditions: Digitaria sanguinalis, 504 h
In short: as §2

LOLRI = assay: Pre-emergence herbicidal action against LOLRI; assay type: in vivo, Lolium rigidum; conditions: Lolium rigidum, 504 h, 80 g/ha
Description: Seeds of monocotyledonous and dicotyledonous weed plants and crop plants are laid out in sandy loam soil in wood-fiber pots and covered with soil. The compounds of the invention, formulated in the form of wettable powders (WP) or as emulsion concentrates (EC), are then applied to the surface of the covering soil in the form of an aqueous suspension or emulsion at a water application rate equivalent to 600 to 800 l/ha, with addition of 0.2% wetting agent. After the treatment, the pots are placed in a greenhouse and kept under good growth conditions for the trial plants. The damage to the test plants is scored visually after a test period of 3 weeks by comparison with untreated controls (herbicidal activity in percent (%): 100% activity=the plants have died, 0% activity=like control plants). […] The tables below illustrate, in an illustrative manner, the post-emergence herbicidal action of the compounds of the invention, the herbicidal activity being stated in percent.

ALOMY [8] = assay: Pre-emergence herbicidal action against ALOMY; assay type: in vivo, Alopecurus myosuroides; conditions: Alopecurus myosuroides, 504 h, pre-emergence; for pest or weed control at 80 g/ha: scored visually after 3 weeks vs untreated controls (100% = plants have died, 0% = like control plants); for pest or weed control at 20 g/ha: scored visually after 3 weeks, 100% = plants have died, 0% = like control plants
In short: as §1

AMARE [9] = assay: Pre-emergence herbicidal action against AMARE; assay type: in vivo, Amaranthus retroflexus; conditions: Amaranthus retroflexus, 504 h, scored visually after 3 weeks vs untreated controls, 100% = plants have died, 0% = like control plants
In short: as §1

SETVI [10] = assay: Pre-emergence herbicidal action against SETVI; assay type: in vivo, Setaria viridis; conditions: Setaria viridis, 504 h; for pest or weed control at 20 g/ha: dosage 20 g/ha; for pest or weed control at 80 g/ha: dosage 80 g/ha
In short: as §1

ABUTH [11] = assay: Pre-emergence herbicidal action against ABUTH; assay type: in vivo, Abutilon theophrasti; conditions: Abutilon theophrasti, 504 h; for pest or weed control at 80 g/ha: scored visually after 3 weeks vs untreated controls (100% = plants have died, 0% = like control plants); for pest or weed control at 20 g/ha: dosage 20 g/ha, scored visually after 3 weeks vs untreated controls, 100% = plants have died, 0% = like control plants, read-out: Pre-emergence action against ABUTH (herbicidal activity in percent)
In short: as §1

MATIN [12] = assay: Pre-emergence herbicidal action against MATIN; assay type: in vivo, Matricaria inodora; conditions: Tripleurospermum inodorum, 504 h; for pest or weed control at 20 g/ha: dosage 20 g/ha; for pest or weed control at 80 g/ha: dosage 80 g/ha
In short: as §1

ECHCG [13] = assay: Pre-emergence herbicidal action against ECHCG; assay type: in vivo, Echinochloa crus-galli; conditions: Echinochloa crus-galli, 504 h, 80 g/ha
In short: as §1

SETVI [14] = assay: Post-emergence herbicidal action against SETVI; assay type: in vivo, Setaria viridis; conditions: Setaria viridis, 504 h
In short: as §2

ALOMY [15] = assay: Post-emergence herbicidal action against ALOMY; assay type: in vivo, Alopecurus myosuroides; conditions: Alopecurus myosuroides, 504 h, visual assessment about 3 weeks after treatment vs untreated controls
In short: as §2

MATIN [16] = assay: Post-emergence herbicidal action against MATIN; assay type: in vivo, Matricaria inodora; conditions: Tripleurospermum inodorum, 504 h, dosage 20 g/ha
In short: as §2

Compound	pest or weed control at 20 g/ha (VERPE) [%]	pest or weed control at 20 g/ha (AMARE [2]) [%]	pest or weed control at 20 g/ha (VIOTR [3]) [%]	pest or weed control at 80 g/ha (VIOTR [3]) [%]	pest or weed control at 20 g/ha (ABUTH [4]) [%]	pest or weed control at 20 g/ha (VIOTR [5]) [%]	pest or weed control at 20 g/ha (PHBPU) [%]	pest or weed control at 80 g/ha (AVEFA) [%]	pest or weed control at 20 g/ha (ECHCG [6]) [%]	pest or weed control at 80 g/ha (LOLRI) [%]	pest or weed control at 80 g/ha (ALOMY [8]) [%]	pest or weed control at 20 g/ha (ALOMY [8]) [%]	pest or weed control at 20 g/ha (AMARE [9]) [%]	pest or weed control at 80 g/ha (AMARE [9]) [%]	pest or weed control at 20 g/ha (SETVI [10]) [%]	pest or weed control at 80 g/ha (SETVI [10]) [%]	pest or weed control at 80 g/ha (ABUTH [11]) [%]	pest or weed control at 20 g/ha (ABUTH [11]) [%]	pest or weed control at 20 g/ha (MATIN [12]) [%]	pest or weed control at 80 g/ha (MATIN [12]) [%]	also measured
Cn1nnnc1NC(=O)c1ccc(I)c(C(=O)NC2CC2)c1Cl [Example 1-197]	80	100	100	100	100	100	90	100	90	80	100	100	100	100	100	100	100	100	90	100	pest or weed control at 20 g/ha (DIGSA [1]; dosage 20 g/ha): 100%; pest or weed control at 80 g/ha (DIGSA [1]; dosage 80 g/ha): 100%; pest or weed control at 5 g/ha (DIGSA [7]; 5 g/ha): 100%; pest or weed control at 20 g/ha (DIGSA [7]; 20 g/ha): 100%; pest or weed control at 80 g/ha (ECHCG [13]): 90%
CNC(=O)c1c(I)ccc(C(=O)Nc2nnnn2C)c1Cl [Example 1-195]	80	100	100	100	80	100	80	90	80	80	90	90	90	100	90	100	100	90	90	100	pest or weed control at 5 g/ha (SETVI [14]; dosage 5 g/ha): 100%; pest or weed control at 20 g/ha (SETVI [14]; dosage 20 g/ha): 100%; pest or weed control at 5 g/ha (VIOTR [5]; 5 g/ha): 90%; pest or weed control at 5 g/ha (PHBPU; dosage 5 g/ha): 80%; pest or weed control at 20 g/ha (AVEFA; 20 g/ha, scored visually after 3 weeks, 100% = plants have died, 0% = like control plants): 80%; pest or weed control at 5 g/ha (ALOMY [15]; dosage 5 g/ha): 90%; pest or weed control at 20 g/ha (ALOMY [15]; dosage 20 g/ha): 100%; pest or weed control at 20 g/ha (MATIN [16]): 80%; pest or weed control at 80 g/ha (ECHCG [13]): 100%
